Source: patent US4246194A, “Amino-hydroxy-alkyl sulfonic acid-zwitterions” (priority 1979, dated 1981)

Columns and labels:
[1] = use as buffer in biological research; cited from earlier work
[2] = cited from earlier work
[3] = test system: NIL B, SV-NIL and BALB/C 3T3 cells; test: effectiveness as cell and tissue culture buffers (overall, cell lines tested); details: selected media; for effectiveness as culture buffer compared with HEPES: vs HEPES; for effectiveness as culture buffer compared with NaHCO3:CO2 system (control): vs NaHCO3:CO2 control
Experimental: The cell lines used in the tests were NIL B, a hamster fibroblast line; SV-NIL, an SV40-virus transformed line derived from NIL B; and BALB/C 3T3, a mouse embryo tissue. The cells were seeded into T-flasks (screw-capped polystyrene flasks) with a 25 cm^2 area. On the control flask (CO2 atmosphere), the cap was kept loose to allow gas circulation while the caps on the experimental culture flasks were screwed on tightly. The medium used in these tests was Eagle's MEM 4X (see pages 108-112 of Paul, Cell and Tissue Culture, 5th Edition, 1975), in an Earle's salt solution (page 95 of same text) modified to contain 2.2 g/l of bicarbonate for the experimental buffers. The control was not so modified. The control flask was incubated at 37° C. in an atmosphere of 5% CO2 in air whereas the other flasks were incubated at 37° C. in an air atmosphere. The medium was changed every other day.
At appointed times, triplicate flasks were harvested using trypsin, and the approximate cell population was determined using a Coulter electronic particle counter.

[4] = solubility of the zwitterion on acidification; format: physicochemical; details: acidified to pH 1.5 with HCl, water

NC(CO)(CO)CO [Tris, tris-(hydroxy-methyl)aminomethane]
inhibitory side effect [1]: often inhibitory
buffering capacity ([2]; below pH 7.5): poor buffering capacity
reactivity ([2]; primary aliphatic amine): considerable reactivity

O=S(=O)(O)CC(O)CN1CCOCC1 (centres unmarked) [Example 6, 3-(N-morpholino)-2-hydroxypropyl sulfonic acid]
effectiveness as culture buffer compared with HEPES [3]: about as good as
effectiveness as culture buffer compared with NaHCO3:CO2 system (control) [3]: not as good as

O=S(=O)(O)CC(O)CN1CCN(CC(O)CS(=O)(=O)O)CC1 (centres unmarked) [Example 4, Piperazine-N,N'-2-hydroxypropyl sulfonic acid (dihydrate)]
solubility [4]: very insoluble

O=S(=O)(O)CC(O)CN1CCN(CCO)CC1 (centres unmarked) [Example 3, N-hydroxyethyl piperazine-N'-2 hydroxypropyl sulfonic acid]
effectiveness as culture buffer compared with HEPES [3]: as good as, if not better than
effectiveness as culture buffer compared with NaHCO3:CO2 system (control) [3]: as good as, if not better than
